Results published in patent publication US20200352934A1, “LOW-TEMPERATURE STABLE OPIOID ANTAGONIST SOLUTIONS” (priority 2017, published 2020).
Where two headings read alike, the source gives them in different places.

Details: storage at 4° C.
[1] = per 100 mL: EDTA-Na2 0 mg, PG 5% w/v
[2] = per 100 mL: EDTA-Na2 0 mg, PG 10% w/v
[3] = per 100 mL: EDTA-Na2 0 mg, PG 20% w/v
[4] = per 100 mL: EDTA-Na2 100 mg, PG 5% w/v
[5] = per 100 mL: EDTA-Na2 100 mg, PG 10% w/v
[6] = per 100 mL: EDTA-Na2 100 mg, PG 20% w/v

## C=CCN1CC[C@]23c4c5ccc(O)c4O[C@H]2C(=O)CC[C@@]3(O)[C@H]1C5 [Naloxone]
[1]
  Observed naloxone precipitation 24 days: No
  Observed naloxone precipitation 35 days: No
  Observed naloxone precipitation 53 days: No
[2]
  Observed naloxone precipitation 24 days: No
  Observed naloxone precipitation 35 days: No
  Observed naloxone precipitation 53 days: No
[3]
  Observed naloxone precipitation 24 days: No
  Observed naloxone precipitation 35 days: No
  Observed naloxone precipitation 53 days: No
[4]
  Observed naloxone precipitation 24 days: No
  Observed naloxone precipitation 35 days: No
  Observed naloxone precipitation 53 days: No
[5]
  Observed naloxone precipitation 24 days: No
  Observed naloxone precipitation 35 days: No
  Observed naloxone precipitation 53 days: No and Slight
[6]
  Observed naloxone precipitation 24 days: No and Slight
  Observed naloxone precipitation 35 days: No and Yes
  Observed naloxone precipitation 53 days: No and Yes
